Laboratory results taken from patent publication US20250034116A1, “1,4-DIHETEROCYCLIC SUBSTITUTED AROMATIC RING OR AROMATIC HETEROCYCLIC COMPOUND AND USE THEREOF” (BeBetter Med Inc., priority 2022, published 2025).

What was measured:
[1] = test system: 20-HETE; assay: Experiment 5: level of 20-HETE in DIO mouse model; format: in vivo, Male C57BL/6J mice; conditions: DIO mice, single oral dose 50 mg/kg, 8 hours; most pronounced in the liver and kidneys
Protocol: Experiment 5 was to investigate the effect of compound 2 on regulating the level of 20-HETE in a diet-induced obesity (DIO) mouse model. Male C57BL/6J mice were purchased from Guangdong Vital River Laboratory Animal Technology Co., Ltd. and housed in a barrier system animal facility. After 24 weeks of high-fat diet (HFD) induction, compound 2 was administered at a dose of 50 mg/kg once, and samples were collected after 8 hours to detect the level of 20-HETE. A solvent control group was also set up simultaneously, with 3 animals per group.

[2] = test system: diet-induced obesity (DIO) mouse model; assay: Experiment 4: weight loss of compound 2 compared with semaglutide in DIO mouse model; format: in vivo, Male C57BL/6J mice
Description: Experiment 4 was to compare the weight loss effects of compound 2 with that of semaglutide in a diet-induced obesity (DIO) mouse model. Male C57BL/6J mice were purchased from Vital River Laboratories (Shanghai) Co., Ltd. and housed in a barrier system animal facility. Animals were randomly divided into 4 groups: normal control group, DIO model control group, compound 2 treatment group, and semaglutide treatment group, with 6 animals per group. The model control group and treatment groups were first fed with high-fat diet (HFD) for 18 weeks, after which the treatment groups were administered with compound 2 or semaglutide, respectively. Compound 2 was administered orally at a dose of 30 mg/kg once daily for 14 consecutive weeks, while semaglutide was administered subcutaneously at a dose of 30 nmol/kg once daily. After 7 weeks of semaglutide treatment, the semaglutide treatment group was switched to compound 2 treatment for another 7 weeks.

SMILES: O=C1CCCN1CC1CCN(c2ccc(-c3cn[nH]c3)cc2F)CC1 [Compound 2, 1-((1-(2-fluoro-4-(1H-pyrazol-4-yl)phenyl)piperidin-4-yl)methyl)pyrrolidin-2-one]
- 20-HETE levels in the liver, kidneys, and brain tissues compared to the solvent control group [1]: varying degrees of decrease
- maximum weight loss effect, decrease compared to pre-administration weight ([2]; 30 mg/kg orally once daily, after 6 weeks): approximately 36%
- food intake ([2]; 30 mg/kg orally once daily, returned to control level in the 6th week): slightly decreased
- body weight decrease, of pre-administration weight ([2]; 7 weeks semaglutide, then switched to compound 2 for 7 weeks): 33.6%
- weight loss effect compared with semaglutide ([2]; DIO mouse model): greater weight loss effect than semaglutide
